# Assay results: patent publication US20250120944A1, “ANTIBACTERIAL COMPOSITION” (SEOUL NATIONAL UNIVERSITY R&DB FOUNDATION, priority 2021, published 2025)
# Tests used:
# [1] = test system: LC3; assay: immunoblotting of LC3 in J774A.1 and HeLa cells treated with LPS; assay type: cell-based; conditions: 100 ng/mL, 6 hours
# Experimental: (§1) First, J774A.1 macrophages (Korean Cell Line Bank) were cultured in RPMI (Rosewell Park Memorial Institue) supplemented with 10% FBS and 100 units/mL penicillin/streptomycin, and HeLa cells were cultured in Dulbecco's Modified Eagle's Medium (DMEM; Gibco, 10566016) supplemented with 10% FBS and 100 units/mL penicillin/streptomycin. All cell lines were tested negative for mycoplasma using the MycoAlert detection kit (Lonza, LT07-118), and all culture plates and cell lines were maintained in a humidified incubator at 37° C. and 5% CO2.
# […] Mouse monoclonal anti-β62 (Abcam, ab56416, 1: 100,000) was used for immunoblotting, rabbit polyclonal anti-LC3 (Sigma, L7543, 1:40,000) was used for immunoblotting, and anti-rabbit IgG-HRP (Cell Signaling, 7074, 1:10,000) and anti-mouse IgG-HRP (Cell Signaling, 7076, 1:1000) were used as secondary antibodies.
# In addition, in order to rule out the possibility that J774A.1 and HeLa cells lack the ability to induce autophagy in response to pathogen invasion, the J774A.1 and HeLa cells of Experimental Example 1-1 were treated with lipopolysaccharide (LPS) (100 ng/mL), a component of the outer membrane of Gram-negative bacteria, as a pathogen-associated molecular pattern (PAMP) for 6 hours, and immunoblotting was performed in the same manner as in Experimental Example 1-1.
# [2] = test system: LC3; assay: immunoblotting of LC3 in S. typhimurium-infected J774A.1 cells treated with a lysosomal V-ATPase inhibitor; assay type: cell-based; conditions: 100 nM, 4 hours
# Experimental: as §1
# Macrophage J774A.1 and HeLa cells were infected with Salmonella typhimurium, a Gram-negative bacterium, and the expression of LC3 was monitored through immunoblotting. Mouse monoclonal anti-[…] (Abcam, ab56416, 1: 100,000) was used for immunoblotting, rabbit polyclonal anti-LC3 (Sigma, L7543, 1:40,000) was used for immunoblotting, and anti-rabbit IgG-HRP (Cell Signaling, 7074, 1:10,000) and anti-mouse IgG-HRP (Cell Signaling, 7076, 1:1000) were used as secondary antibodies.
# The J774A.1 cells of Experimental Example 1-1 were treated with bafilomycin A1 (100 nM), an inhibitor of lysosomal V-ATPase, for 4 hours, and immunoblotting was performed in the same manner as in Experimental Example 1-1. However, there was no difference in the degree of inhibition of LC3-I and LC-II expression even when treated with lysosomal V-ATPase inhibitor (FIG. 1E).
Compound,lipidation of LC3 (LC3-II) [1],synthesis of LC3 (LC3-I) [1],degree of inhibition of LC3-I and LC-II expression [2]
lipopolysaccharide [LPS],strongly induced,strongly induced,–
CO/C1=C\C(C)=C\[C@@H](C)[C@@H](O)[C@@H](C)C/C(C)=C/C=C/[C@H](OC)[C@@H]([C@@H](C)[C@@H](O)[C@H](C)[C@@]2(O)C[C@@H](O)[C@H](C)[C@@H](C(C)C)O2)OC1=O [bafilomycin A1],–,–,no difference
